Test results taken from patent US7365231B2, “Compound with antitumor activity and preparation method therefor” (National Taiwan University of Science & Technology, priority 2005, dated 2008).

How the values were obtained:
[1] = tested on: human colon cancer Colo 205 xenografts; assay: In vivo antitumor effect of DPA and/or CPT-11, xenografts; set-up: species or system ICR nude mice; settings: DPA 20 mg/kg i.p. twice a week; end of experiment
Procedure: To further investigate whether DPA could enhance the antitumoral activity of the chemotherapeutic agent CPT-11, Colo 205 cells were treated with DPA or DPA in combination with CPT-11. Cancer cells were transplanted into ICR nude mice, and when the tumors were palpable (30˜35 mm^3), the mice were treated either with vehicle control, CPT-11 or DPA (20 mg/kg, i.p., twice a week). Tumour volume(V) was calculated according to the following formula: V(mm^3)=0.4AB^2, where A and B are the longest diameter and the shortest diameter, respectively (Cancer Res. 1966; 26:1787-1800). […] The tumor size of DPA in combination with CPT-11-treated mice was a 73% decrease as compared with that of CPT-11-treated mice.

HCT-15 cells = assay: Cell cycle analysis by flow cytometry; assay type: cell-based, human
Procedure: (§1) The cell cycle progression of Colo205, HT 29 and HCT-15 cells was examined using flow cytometry after exposure to 1, 2, 4 or 8 μM DPA for 72 hours. […] HT-29 cells were mainly in G0/G1 phase (84.1-86.0%), and only a few percent of cells in S phase (7.4-8.0%) after exposure to 4 μM DPA for 48-72 h. […] The G0/G1 arrest was not induced in the HCT-15 cells treated with 1-8 μM DPA for 24-72 h. […] DPA exerted the dose specific effect for the induced G0/G1 arrest on Colo 205 cells. […] In addition, we noted that DPA-mediated accumulation of Colo205 and HT 29 cells in G1 phase (>80%) was similar to that of DPD (Anti-Cancer Drug 2004; 15:277-80). It is likely that the induced G1-arrest without concomitant apoptosis on Colo 205 and HT 29 colon cancer cells is one unique property of structure I.

Colo 205 cells [2] = assay: Cell cycle analysis by flow cytometry; assay type: cell-based, human
Procedure: as §1

[3] = Toxicity, body weight and histology, DPA twice a week; assay type: in vivo, ICR nude mice
[4] = tested on: human colon cancer Colo 205 xenografts; assay: In vivo antiproliferation, colon cancer xenografts, DPA once a week; set-up: species or system ICR nude mice; settings: for tumor size compared to vehicle control: end point
Procedure: (§2) We further examined whether DPA is also effective in vivo after tumor formation. For compare the in vivo antitumor activity with DPD (DPA analogue), we followed the method of our previous study (Br. J Cancer 2003; 89: 1995-2003), and the similar doses were used. Cancer cells were transplanted into ICR nude mice, and when the tumors were palpable (2-4 mm), the mice were treated either with vehicle control or DPA (20-80 mg kg^−1, i.p., once a week). […] Its tumor size (48.6 mm^2) was about 3-fold larger than the average tumor size (16.7 mm^2) of the other DPA 80 mg kg^−1-treated mice at 7 days after the initial treatment. […] (ii) DPA presented the dose-specific effect for antitumor activity on human colon cancer xenografts. The dose-specific phenomenon was also found in vitro study of DPA-induced cell cycle arrest on Colo 205 cells as shown in Table 3.

Colo 205 cells [5] = assay: Cell cycle analysis by flow cytometry; assay type: cell-based, human; remark: listed apart in the source
[6] = Toxicity and body weight in nude mice, DPA once a week; assay type: in vivo; settings: DPA 20-80 mg kg^−1, i.p.
Procedure: as §2

Nc1ccc(Oc2ccc(C3(c4ccc(Oc5ccc(N)c(O)c5)cc4)C4CC5CC(C4)CC3C5)cc2)cc1O [DPA, 2,2-bis(4-(4-amino-3-hydroxyphenoxy)phenyl)adamantane]
tumor size compared to control groups [1]: significantly (P<0.05) decreased | cells in G2/M phase (HCT-15 cells; 8 μM DPA for 24-48 h): 6.9-7.6% | G0/G1 arrest (HCT-15 cells; 1-8 μM DPA for 24-72 h): not induced | G0/G1(%) (HCT-15 cells; DPA 1 μM, 24 h): 31.4% | G2/M(%) (HCT-15 cells; DPA 1 μM, 24 h): 18.1% | S(%) (HCT-15 cells; DPA 1 μM, 24 h): 50.6% | G0/G1(%) (HCT-15 cells; DPA 1 μM, 48 h): 39.1% | G2/M(%) (HCT-15 cells; DPA 1 μM, 48 h): 15.8% | S(%) (HCT-15 cells; DPA 1 μM, 48 h): 45.1% | G0/G1(%) (HCT-15 cells; DPA 1 μM, 72 h): 51.8% | G2/M(%) (HCT-15 cells; DPA 1 μM, 72 h): 13.2% | S(%) (HCT-15 cells; DPA 1 μM, 72 h): 35.0% | G0/G1(%) (HCT-15 cells; DPA 2 μM, 24 h): 31.8% | G2/M(%) (HCT-15 cells; DPA 2 μM, 24 h): 14.2% | S(%) (HCT-15 cells; DPA 2 μM, 24 h): 54.0% | G0/G1(%) (HCT-15 cells; DPA 2 μM, 48 h): 35.2% | G2/M(%) (HCT-15 cells; DPA 2 μM, 48 h): 16.0% | S(%) (HCT-15 cells; DPA 2 μM, 48 h): 48.8% | G0/G1(%) (HCT-15 cells; DPA 2 μM, 72 h): 49.2% | G2/M(%) (HCT-15 cells; DPA 2 μM, 72 h): 14.3% | S(%) (HCT-15 cells; DPA 2 μM, 72 h): 36.6% | G0/G1(%) (HCT-15 cells; DPA 4 μM, 24 h): 30.6% | G2/M(%) (HCT-15 cells; DPA 4 μM, 24 h): 11.2% | S(%) (HCT-15 cells; DPA 4 μM, 24 h): 58.2% | G0/G1(%) (HCT-15 cells; DPA 4 μM, 48 h): 30.5% | G2/M(%) (HCT-15 cells; DPA 4 μM, 48 h): 14.3% | S(%) (HCT-15 cells; DPA 4 μM, 48 h): 55.3% | G0/G1(%) (HCT-15 cells; DPA 4 μM, 72 h): 40.8% | G2/M(%) (HCT-15 cells; DPA 4 μM, 72 h): 17.2% | S(%) (HCT-15 cells; DPA 4 μM, 72 h): 42.1% | G0/G1(%) (HCT-15 cells; DPA 8 μM, 24 h): 39.6% | G2/M(%) (HCT-15 cells; DPA 8 μM, 24 h): 6.9% | S(%) (HCT-15 cells; DPA 8 μM, 24 h): 53.5% | G0/G1(%) (HCT-15 cells; DPA 8 μM, 48 h): 37.5% | G2/M(%) (HCT-15 cells; DPA 8 μM, 48 h): 7.6% | S(%) (HCT-15 cells; DPA 8 μM, 48 h): 54.9% | G0/G1(%) (HCT-15 cells; DPA 8 μM, 72 h): 38.2% | G2/M(%) (HCT-15 cells; DPA 8 μM, 72 h): 11.9% | S(%) (HCT-15 cells; DPA 8 μM, 72 h): 49.9% | accumulation of cells in G1 phase (Colo 205 cells [2]; Colo205): > 80% | G2/M(%) (Colo 205 cells [2]; Colo 205, DPA 1 μM, 72 h): 10.1% | S(%) (Colo 205 cells [2]; Colo 205, DPA 1 μM, 72 h): 29.6% | acute toxicity ([3]; DPA 20~80 mg/kg, i.p., twice a week): no obviously acute toxicity | body weight ([3]; DPA-treated mice, twice a week): no significant reduction in body weight | tissue damage in liver, lung and kidney ([3]; tissue slices stained with haematoxylin and eosin): no tissue damage was observed | concentration of maximum in vivo antitumor effect ([4]; Colo 205 xenografts, i.p.): about 40 mg kg^−1 week^−1 | tumor size compared to vehicle control ([4]; DPA 20 mg kg^−1 i.p. once a week): not significantly decreased | tumor size compared to control groups ([4]; DPA 40 mg kg^−1 i.p. once a week): significantly (P<0.05) decreased | average tumor size ([4]; DPA 40 mg kg^−1 i.p. once a week, end of study (control 81.5)): 29.6 mm^2 | tumor size of one mouse with abnormally large tumor ([4]; DPA 80 mg kg^−1, 7 days after initial treatment): 48.6 mm^2 | average tumor size of the other mice ([4]; DPA 80 mg kg^−1, 7 days after initial treatment, without the outlier mouse): 16.7 mm^2 | tumor size compared to vehicle control ([4]; DPA 80 mg kg^−1 i.p. once a week): not significantly decreased | G0/G1 cell-cycle arrest and apoptosis (Colo 205 cells [5]; Colo205): G0/G1 cell-cycle arrest without concomitant apoptosis | cells in G1 phase (Colo 205 cells [5]; Colo 205, 2 μM DPA for 48-72 h): 84.1-87.1% | cells in G2/M phase (Colo 205 cells [5]; Colo 205, 2 μM DPA for 48-72 h): 5.1-5.6% | cells in S phase (Colo 205 cells [5]; Colo 205, 2 μM DPA for 48-72 h): 7.8-10.3% | G0/G1(%) (Colo 205 cells [5]; Colo 205, DPA 1 μM, 24 h): 58.9% | G2/M(%) (Colo 205 cells [5]; Colo 205, DPA 1 μM, 24 h): 12.0% | S(%) (Colo 205 cells [5]; Colo 205, DPA 1 μM, 24 h): 29.0% | G0/G1(%) (Colo 205 cells [5]; Colo 205, DPA 1 μM, 48 h): 53.3% | G2/M(%) (Colo 205 cells [5]; Colo 205, DPA 1 μM, 48 h): 7.6% | S(%) (Colo 205 cells [5]; Colo 205, DPA 1 μM, 48 h): 39.0% | G0/G1(%) (Colo 205 cells [5]; Colo 205, DPA 1 μM, 72 h): 60.3% | G0/G1(%) (Colo 205 cells [5]; Colo 205, DPA 2 μM, 24 h): 67.1% | G2/M(%) (Colo 205 cells [5]; Colo 205, DPA 2 μM, 24 h): 48.3% | S(%) (Colo 205 cells [5]; Colo 205, DPA 2 μM, 24 h): 24.1% | G0/G1(%) (Colo 205 cells [5]; Colo 205, DPA 2 μM, 48 h): 84.1% | G2/M(%) (Colo 205 cells [5]; Colo 205, DPA 2 μM, 48 h): 5.6% | S(%) (Colo 205 cells [5]; Colo 205, DPA 2 μM, 48 h): 10.3% | G0/G1(%) (Colo 205 cells [5]; Colo 205, DPA 2 μM, 72 h): 87.1% | G2/M(%) (Colo 205 cells [5]; Colo 205, DPA 2 μM, 72 h): 5.1% | S(%) (Colo 205 cells [5]; Colo 205, DPA 2 μM, 72 h): 7.8% | G0/G1(%) (Colo 205 cells [5]; Colo 205, DPA 4 μM, 24 h): 67.5% | G2/M(%) (Colo 205 cells [5]; Colo 205, DPA 4 μM, 24 h): 8.2% | S(%) (Colo 205 cells [5]; Colo 205, DPA 4 μM, 24 h): 24.3% | G0/G1(%) (Colo 205 cells [5]; Colo 205, DPA 4 μM, 48 h): 71.6% | G2/M(%) (Colo 205 cells [5]; Colo 205, DPA 4 μM, 48 h): 10.4% | S(%) (Colo 205 cells [5]; Colo 205, DPA 4 μM, 48 h): 18.1% | G0/G1(%) (Colo 205 cells [5]; Colo 205, DPA 4 μM, 72 h): 76.3% | G2/M(%) (Colo 205 cells [5]; Colo 205, DPA 4 μM, 72 h): 10.3% | S(%) (Colo 205 cells [5]; Colo 205, DPA 4 μM, 72 h): 13.4% | G0/G1(%) (Colo 205 cells [5]; Colo 205, DPA 8 μM, 24 h): 70.5% | G2/M(%) (Colo 205 cells [5]; Colo 205, DPA 8 μM, 24 h): 5.2% | S(%) (Colo 205 cells [5]; Colo 205, DPA 8 μM, 24 h): 24.3% | G0/G1(%) (Colo 205 cells [5]; Colo 205, DPA 8 μM, 48 h): 70.6% | G2/M(%) (Colo 205 cells [5]; Colo 205, DPA 8 μM, 48 h): 5.2% | S(%) (Colo 205 cells [5]; Colo 205, DPA 8 μM, 48 h): 24.1% | G0/G1(%) (Colo 205 cells [5]; Colo 205, DPA 8 μM, 72 h): 70.7% | G2/M(%) (Colo 205 cells [5]; Colo 205, DPA 8 μM, 72 h): 3.4% | S(%) (Colo 205 cells [5]; Colo 205, DPA 8 μM, 72 h): 25.8% | body weight [6]: No significant reduction in body weight
